# Reference: patent publication US9988379B2, “GPR40 receptor agonist, methods of preparing the same, and pharmaceutical compositions containing the same as an active agent” (LG CHEM, LTD., priority 2012, dated 2018)
# Target: T1, human GPR40 (Homo sapiens, UniProt O14842)
# T1 construct: expressed in transfected cells; host or cells: CHO-K1
# Assay: Induction of Ca2+ (calcium flux assay) using human GPR40 expression cell line
# Assay type: cell-based
# Details: read-out: EC0.5
# Method: Evaluation of the Test Compounds for Induction of Ca^2+ Using Human GPR40 Expression Cell Line
# The cell line expressing human GPR40 was generated by transfection of the GPR40 expression vector into CHO-K1 cell, and used in the following calcium flux assay.
# The cell line was cultured in cell-culture medium (F-12 (Invitrogen) supplemented with 10% (v/v) FBS (Fetal Bovine Serum; Invitrogen), 0.5 mg/ml Geneticin (Invitrogen) and 1% (v/v) Antibiotic-Antimycotic solution (Invitrogen)) under the condition of 5% CO2 and 37° C. For calcium flux assay, the cells were diluted with the cell-culture medium to a concentration of 5×10^5 cells/ml, and the diluted cell suspension was dispensed in amount of 100 μl/well to a 96-well transparent bottom black polystyrene cell culture plate (Corning) and then cultured for 24 hours. The following concentrations of test compounds were added to these cells, and then the changes in intracellular calcium concentration were measured by FlexStation II384 (Molecular Devices). The following solution was prepared before the measurement.
# First, a buffer solution for assay was prepared for use in the manufacture of fluorescent dye solution. This buffer solution was prepared by adding 1M HEPES solution (Invitrogen) to HBSS (Hanks' Balanced Salt Solution) (Invitrogen) and then adding 1M NaOH (Nacalai Tesque) to adjust pH to 7.4. Then the fluorescent dye solution was prepared according to the manufacturer's instruction attached to Calcium 5 Assay Kit (Molecular Devices), and the final DMSO concentration was adjusted to 2%.
# The fluorescent dye solution was added in an amount of 100 μl/well to supernatant of the cell culture plate cultured for 24 hours. The plate was cultured for 1 hour under the condition of 5% CO2 and 37° C. so that the fluorescent dye was inserted into the cell.
# Test compounds (i.e., the compounds prepared in the Examples) dissolved in dimethyl sulfoxide (DMSO ACROS) were diluted 200-fold in the buffer solution for assay to prepare compound solutions corresponding to the respective concentrations. […] 50 μl of the prepared sample solutions was added to each well of 96-well polypropylene plates (NUNC), and thereby a compound plate was prepared. Finally, the compound plate and the cell culture plate cultured for 1 hour with the fluorescent dye were placed in FlexStation II384.
# After the above pre-treatment, the change in the intracellular calcium concentration when each concentration of the test compound solutions was added at 50 μl was measured by FlexStation II^384.
# Then, the relative activity values depending on the concentration of the compound were plotted using Prism 4 software (GraphPad) to calculate the EC0.5 value.
# T1 sequence (O14842 whole entry): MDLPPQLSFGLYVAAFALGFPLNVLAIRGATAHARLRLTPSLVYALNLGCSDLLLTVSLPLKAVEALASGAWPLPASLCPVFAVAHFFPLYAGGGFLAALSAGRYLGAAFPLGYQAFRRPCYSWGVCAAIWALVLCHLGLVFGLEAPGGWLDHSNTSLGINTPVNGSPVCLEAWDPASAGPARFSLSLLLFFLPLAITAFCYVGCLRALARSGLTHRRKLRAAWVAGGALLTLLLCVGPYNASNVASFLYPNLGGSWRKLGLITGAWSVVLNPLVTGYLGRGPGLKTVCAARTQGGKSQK
row,Structure (SMILES),EC50
1,"CC#C[C@@H](CC(=O)O)c1ccc(OCc2ccc3ccn(Cc4ccccc4C)c3c2C)cc1 [Example 36, (S)-3-{4-[7-methyl-1-(2-methyl-benzyl)-1H-indol-6-ylmethoxy]-phenyl}-hex-4-ynoic acid]",60 nM
2,"CC#C[C@@H](CC(=O)O)c1ccc(OCc2ccc3ccn(Cc4ccccc4Cl)c3c2C)cc1 [Example 38, (S)-3-{4-[1-(2-chloro-benzyl)-7-methyl-1H-indol-6-ylmethoxy]-phenyl}-hex-4-ynoic acid]",90 nM
3,"CC#C[C@@H](CC(=O)O)c1ccc(OCc2ccc3ccn(Cc4c(C)cccc4C)c3c2C)cc1 [Example 39, (S)-3-{4-[1-(2,6-dimethyl-benzyl)-7-methyl-1H-indol-6-ylmethoxy]-phenyl}-hex-4-ynoic acid]",200 nM
4,"CC#C[C@@H](CC(=O)O)c1ccc(OCc2ccc3ccn(Cc4ccccc4)c3c2Cl)cc1 [Example 40, (S)-3-[4-(1-benzyl-7-chloro-1H-indol-6-ylmethoxy)-phenyl]-hex-4-ynoic acid]",60 nM
5,"CC#C[C@@H](CC(=O)O)c1ccc(OCc2ccc3ccn(Cc4cccc(F)c4)c3c2C)cc1 [Example 42, (S)-3-{4-[1-(3-fluoro-benzyl)-7-methyl-1H-indol-6-ylmethoxy]-phenyl}-hex-4-ynoic acid]",50 to 500 nM
6,"CC#C[C@@H](CC(=O)O)c1ccc(OCc2ccc3ccn(Cc4cccc(C(F)(F)F)c4)c3c2C)cc1 [Example 43, (S)-3-{4-[7-methyl-1-(3-trifluoromethyl-benzyl)-1H-indol-6-ylmethoxy]-phenyl}-hex-4-ynoic acid]",50 to 500 nM
7,"CC#C[C@@H](CC(=O)O)c1ccc(OCc2c(F)cc3ccn(Cc4ccccc4)c3c2C)cc1 [Example 49, (S)-3-[4-(1-benzyl-5-fluoro-7-methyl-1H-indol-6-ylmethoxy)-phenyl]-hex-4-ynoic acid]",50 to 500 nM
8,"CC#C[C@@H](CC(=O)O)c1ccc(OCc2ccc3ccn(Cc4ccc(F)cc4)c3c2C)cc1 [Example 50, (S)-3-{4-[1-(4-fluoro-benzyl)-7-methyl-1H-indol-6-ylmethoxy]-phenyl}-hex-4-ynoic acid]",50 to 500 nM
9,"CC#C[C@@H](CC(=O)O)c1ccc(OCc2ccc3ccn(Cc4ccc(F)c(F)c4)c3c2C)cc1 [Example 51, (S)-3-{4-[1-(3,4-difluoro-benzyl)-7-methyl-1H-indol-6-ylmethoxy]-phenyl}-hex-4-ynoic acid]",50 to 500 nM
10,"CC#C[C@@H](CC(=O)O)c1ccc(OCc2ccc3ccn(Cc4cc(F)cc(F)c4)c3c2C)cc1 [Example 52, (S)-3-{4-[1-(3,5-difluoro-benzyl)-7-methyl-1H-indol-6-ylmethoxy]-phenyl}-hex-4-ynoic acid]",50 to 500 nM
11,"CC#C[C@@H](CC(=O)O)c1ccc(OCc2ccc3ccn(Cc4ccc(F)cc4F)c3c2C)cc1 [Example 53, (S)-3-{4-[1-(2,4-difluoro-benzyl)-7-methyl-1H-indol-6-ylmethoxy]-phenyl}-hex-4-ynoic acid]",50 to 500 nM
12,"O=C(O)CCc1ccc(OCc2cccc3c2ccn3Cc2ccccc2)cc1F [Example 54, 3-[4-(1-benzyl-1H-indol-4-ylmethoxy)-2-fluoro-phenyl]-propanoic acid]",50 to 500 nM
13,"CC#C[C@@H](CC(=O)O)c1ccc(OCc2ccc3c(F)cn(Cc4ccccc4)c3c2C)cc1 [Example 62, (S)-3-[4-(1-benzyl-3-fluoro-7-methyl-1H-indol-6-ylmethoxy)-phenyl]-hex-4-ynoic acid]",50 to 500 nM

# Other lines, results leading:
row,EC50,Structure (SMILES)
1,40 nM,"CC#C[C@@H](CC(=O)O)c1ccc(OCc2ccc3ccn(Cc4ccccc4F)c3c2C)cc1 [Example 37, (S)-3-{4-[1-(2-fluoro-benzyl)-7-methyl-1H-indol-6-ylmethoxy]-phenyl}-hex-4-ynoic acid]"
2,1 to 50 nM,"CC#C[C@@H](CC(=O)O)c1ccc(OCc2cc3c(ccn3Cc3ccccc3)cc2F)cc1 [Example 41, (S)-3-[4-(1-benzyl-5-fluoro-1H-indol-6-ylmethoxy)-phenyl]-hex-4-ynoic acid]"
3,1 to 50 nM,"CC#C[C@@H](CC(=O)O)c1ccc(OCc2ccc3ccn(Cc4cnc(C)cn4)c3c2C)cc1 [Example 44, (S)-3-{4-[7-methyl-1-(5-methyl-pyrazin-2-ylmethyl)-1H-indol-6-ylmethoxy]-phenyl}-hex-4-ynoic acid]"
4,1 to 50 nM,"CC#C[C@@H](CC(=O)O)c1ccc(OCc2ccc3ccn(Cc4ccc(CS(C)(=O)=O)cc4)c3c2C)cc1 [Example 45, (S)-3-{4-[1-(4-methanesulfonylmethyl-benzyl)-7-methyl-1H-indol-6-ylmethoxy]-phenyl}-hex-4-ynoic acid]"
5,1 to 50 nM,"CC#C[C@@H](CC(=O)O)c1ccc(OCc2ccc3ccn(Cc4ccc(Cl)nc4)c3c2C)cc1 [Example 46, (S)-3-{4-[1-(6-chloro-pyridin-3-ylmethyl)-7-methyl-1H-indol-6-ylmethoxy]-phenyl}-hex-4-ynoic acid]"
6,1 to 50 nM,"CC#C[C@@H](CC(=O)O)c1ccc(OCc2cccc3nn(Cc4ccccc4)cc23)cc1 [Example 47, (S)-3-[4-(2-benzyl-2H-indazol-4-ylmethoxy)-phenyl]-hex-4-ynoic acid]"
7,1 to 50 nM,"CC#C[C@@H](CC(=O)O)c1ccc(OCc2cccc3c2cnn3Cc2ccccc2)cc1 [Example 48, (S)-3-[4-(1-benzyl-1H-indazol-4-ylmethoxy)-phenyl]-hex-4-ynoic acid]"
8,1 to 50 nM,"Cc1c(COc2ccc(CCC(=O)O)c(F)c2)ccc2ccn(Cc3ccccc3)c12 [Example 55, 3-[4-(1-benzyl-7-methyl-1H-indol-6-ylmethoxy)-2-fluoro-phenyl]-propanoic acid]"
9,1 to 50 nM,"CC#C[C@@H](CC(=O)O)c1ccc(OCc2ccc3ccn(Cc4cscn4)c3c2C)cc1 [Example 56, (S)-3-[4-(7-methyl-1-thiazol-4-ylmethyl-1H-indol-6-ylmethoxy]-phenyl}-hex-4-ynoic acid]"
10,1 to 50 nM,"CC#C[C@@H](CC(=O)O)c1ccc(OCc2ccc3ccn(Cc4csc(C)n4)c3c2C)cc1 [Example 57, (S)-3-{4-[7-methyl-1-(2-methyl-thiazol-4-ylmethyl)-1H-indol-6-ylmethoxy]-phenyl}-hex-4-ynoic acid]"
11,1 to 50 nM,"CC#C[C@@H](CC(=O)O)c1ccc(OCc2ccc3cn(Cc4ccccc4)nc3c2)cc1 [Example 58, (S)-3-[4-(2-benzyl-2H-indazol-6-ylmethoxy)-phenyl]-hex-4-ynoic acid]"
12,1 to 50 nM,"CC#C[C@@H](CC(=O)O)c1ccc(OCc2ccc3cnn(Cc4ccccc4)c3c2)cc1 [Example 59, (S)-3-[4-(1-benzyl-1H-indazol-6-ylmethoxy)-phenyl]-hex-4-ynoic acid]"
13,1 to 50 nM,"CC#C[C@@H](CC(=O)O)c1ccc(OCc2ccc3ccn(Cc4cnccn4)c3c2C)cc1 [Example 60, (S)-3-[4-(7-methyl-1-pyrazin-2-ylmethyl-1H-indol-6-ylmethoxy)-phenyl]-hex-4-ynoic acid]"
14,1 to 50 nM,"CC#C[C@@H](CC(=O)O)c1ccc(OCc2ccc3ccn(Cc4ccncn4)c3c2C)cc1 [Example 61, (S)-3-[4-(7-methyl-1-pyrimidin-4-ylmethyl-1H-indol-6-ylmethoxy)-phenyl]-hex-4-ynoic acid]"
15,1 to 50 nM,"CC#C[C@@H](CC(=O)O)c1ccc(OCc2ccc3ccn(Cc4cnn(C)c4)c3c2C)cc1 [Example 63, (S)-3-{4-[7-methyl-1-(1-methyl-1H-pyrazol-4-ylmethyl)-1H-indol-6-ylmethoxy)-phenyl]-hex-4-ynoic acid]"
